This is an account of results in the NIST ThermoML archive (doi:10.1016/j.tca.2006.06.018).

± gives the expanded uncertainty stated by the source.

A short description of data set [1]: Molar enthalpy of transition or fusion. To be noted: DSC.
For data set [2] the following is noted: DTA.

For the compound `CC[N+](C)(C)CCO.F[B-](F)(F)F`, the “Molar enthalpy of transition or fusion” value was 1.23 ± 0.0598 kcal/mol in data set [1] (Crystal 1), 0.28 ± 0.0382 kcal/mol in data set [1] (Crystal 2) and 0.731 ± 0.0478 kcal/mol in data set [1] (Crystal 3). In addition, the Triple point temperature in data set [2] (Crystal 1) came to 426.8 ± 2.1 K; in data set [2] (Crystal 2), 311.5 ± 0.5 K; in data set [2] (Crystal 3) it was 252.8 ± 0.5 K; in data set [2] (Metastable crystal), 146 ± 1 K.

Regarding `CCCC[N+](C)(C)CCO.[Br-]` [N-(2-hydroxyethyl)-N,N-dimethylbutanaminium bromide], the “Molar enthalpy of transition or fusion” value in data set [1] (Crystal 1) turned out to be 3.16 ± 0.105 kcal/mol. Also, the figures for the Triple point temperature in data set [2] (Crystal 1) and in data set [2] (Metastable crystal) were 359.3 ± 2.1 K and 187.3 ± 0.5 K, respectively.

On to `CCCCCCCCOCn1cc[n+](COCCCCCCCC)c1.O=S(=O)([N-]S(=O)(=O)C(F)(F)F)C(F)(F)F`, for which the “Molar enthalpy of transition or fusion” value in data set [1] (Crystal 1) was determined as 8.17 ± 0.229 kcal/mol. In data set [2] (Crystal 1), the Triple point temperature is given as 287.7 ± 2.1 K.

For the compound `CC[N+](C)(C)CCO.N#C[N-]C#N` [N-ethyl-2-hydroxyethyl-N,N-dimethylammonium dicyanamide], in data set [1] (Crystal 1), the “Molar enthalpy of transition or fusion” value turned out to be 2.06 ± 0.0789 kcal/mol. The results for the Triple point temperature in data set [2] (Crystal 1) and in data set [2] (Metastable crystal) were 282.7 ± 2.1 K and 168.4 ± 0.5 K, respectively.

Consider `CCCCOCn1cc[n+](COCCCC)c1.F[B-](F)(F)F` [1,3-bis(butoxymethyl)-1H-imidazolium tetrafluoroborate], for which the entries for the “Molar enthalpy of transition or fusion” value in data set [1] (Crystal 1) and in data set [1] (Crystal 2) were 2.04 ± 0.0789 kcal/mol and 2.6 ± 0.0908 kcal/mol, respectively. Further, the Triple point temperature in data set [2] (Crystal 1) is 281.4 ± 2.1 K; in data set [2] (Crystal 2), 267.4 ± 0.5 K.

Regarding `CC[N+](C)(C)CCO.F[P-](F)(F)(F)(F)F`, the “Molar enthalpy of transition or fusion” value in data set [1] (Crystal 1) came to 2.53 ± 0.0908 kcal/mol. Moreover, the Triple point temperature in data set [2] (Crystal 1) turned out to be 272 ± 2.1 K.

On to `CCCCCCCCCCOn1cc[n+](OCCCCCCCCCC)c1C.O=S(=O)([N-]S(=O)(=O)C(F)(F)F)C(F)(F)F`, for which the “Molar enthalpy of transition or fusion” value in data set [1] (Crystal 1) turned out to be 19 ± 0.502 kcal/mol. In data set [2] (Crystal 1), the Triple point temperature is recorded as 303.1 ± 2.1 K.
